Assay results from patent publication US7612108B2, “2-phenylthiophene derivative” (Astellas Pharma Inc., priority 2004, dated 2009).

These compounds were tested against T1, xanthine oxidase (derived from butter milk) (Bos taurus, UniProt P80457) (assay: Xanthine oxidase-inhibitory activity (pterin oxidation, fluorescence)). Settings: xanthine oxidase 0.03 units/ml, pterin 5 μM.
T1 construct: xanthine oxidase (derived from butter milk, manufactured by Sigma); purchased Sigma; host or cells: buttermilk (natural source)
T1 sequence (P80457 whole entry): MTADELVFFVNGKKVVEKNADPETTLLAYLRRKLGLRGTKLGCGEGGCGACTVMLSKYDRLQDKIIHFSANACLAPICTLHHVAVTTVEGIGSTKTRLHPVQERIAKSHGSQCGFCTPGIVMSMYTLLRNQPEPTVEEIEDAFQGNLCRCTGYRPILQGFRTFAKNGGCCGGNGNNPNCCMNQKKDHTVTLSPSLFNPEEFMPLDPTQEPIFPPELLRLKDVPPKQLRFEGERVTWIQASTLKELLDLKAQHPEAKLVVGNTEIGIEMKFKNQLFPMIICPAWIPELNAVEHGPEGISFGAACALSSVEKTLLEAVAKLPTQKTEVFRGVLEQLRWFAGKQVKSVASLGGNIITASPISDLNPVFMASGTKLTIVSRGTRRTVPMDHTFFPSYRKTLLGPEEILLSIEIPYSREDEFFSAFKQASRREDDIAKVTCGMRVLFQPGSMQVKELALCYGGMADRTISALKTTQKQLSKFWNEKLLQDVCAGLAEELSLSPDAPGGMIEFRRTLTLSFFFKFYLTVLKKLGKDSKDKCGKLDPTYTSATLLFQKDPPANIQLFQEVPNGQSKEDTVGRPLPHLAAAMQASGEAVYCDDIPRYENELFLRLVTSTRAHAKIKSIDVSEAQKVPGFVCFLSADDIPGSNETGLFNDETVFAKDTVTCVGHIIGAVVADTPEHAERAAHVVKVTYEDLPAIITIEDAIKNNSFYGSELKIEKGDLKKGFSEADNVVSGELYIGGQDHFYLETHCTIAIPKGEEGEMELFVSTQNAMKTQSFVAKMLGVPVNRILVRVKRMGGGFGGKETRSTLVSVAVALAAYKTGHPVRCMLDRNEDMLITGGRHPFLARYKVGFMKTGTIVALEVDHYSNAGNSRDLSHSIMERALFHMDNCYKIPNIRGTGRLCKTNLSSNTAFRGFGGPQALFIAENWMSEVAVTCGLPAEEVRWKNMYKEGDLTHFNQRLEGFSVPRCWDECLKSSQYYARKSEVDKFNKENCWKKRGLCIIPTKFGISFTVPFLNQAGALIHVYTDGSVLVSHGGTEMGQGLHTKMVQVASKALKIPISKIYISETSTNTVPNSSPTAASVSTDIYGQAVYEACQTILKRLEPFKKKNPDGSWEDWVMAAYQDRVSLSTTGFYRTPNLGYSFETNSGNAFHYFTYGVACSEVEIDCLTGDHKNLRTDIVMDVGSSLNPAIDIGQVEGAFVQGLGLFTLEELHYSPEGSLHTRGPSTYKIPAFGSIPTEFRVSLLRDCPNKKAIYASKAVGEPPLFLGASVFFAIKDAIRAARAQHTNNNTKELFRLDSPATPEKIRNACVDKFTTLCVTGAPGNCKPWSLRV
Format: biochemical
Experimental: A test compound was dissolved in DMSO (manufactured by Nakarai) so as to be a concentration of 10 mM and then used after the concentration was adjusted to an aimed one at use.
The evaluation of xanthine oxidase-inhibitory activity of the compound of the invention was carried out using a method described in a document (Free Radic. Biol. Med. 6, 607-615, 1992) with partial modification. Namely, xanthine oxidase (derived from butter milk, manufactured by Sigma) was adjusted to 0.03 units/ml using a 50 mM phosphate buffer and was added to a 96-well plate in an amount of 50 μl/well. Each test compound diluted so as to be a final concentration was added thereto in an amount of 2 μl/well, followed by treatment at room temperature for 20 minutes. Pterin (manufactured by Sigma) was added thereto so as to be a final concentration of 5 μM, followed by reaction at room temperature for 10 minutes. Measurement was performed using a microplate reader saphire (manufactured by Tecan) under conditions of excitation at 345 nm and emission at 390 nm (pterin was oxidized by xanthine oxidase into isoxanthopterin, which emitted a light under the conditions).
The concentration of the test compound at which 50% inhibition was observed (IC50 value) was calculated, the emissions of isoxanthopterin under conditions of the presence or absence of xanthine oxidase being 0% inhibition and 100% inhibition, respectively.

| Compound | IC50 |
| --- | --- |
| CC(C)COc1ccc(-c2cc(F)c(C(=O)O)s2)cc1C#N [Example 4, sodium 5-(3-cyano-4-isobutoxyphenyl)-3-fluorothiophene-2-carboxylate] | 2.2 nM |
| CCCCN(C)c1ccc(-c2ccc(C(=O)O)s2)cc1C#N [Example 8, sodium 5-{4-[butyl(methyl)amino]-3-cyanophenyl)thiophene-2-carboxylate] | 4.1 nM |
| CC(C)CSc1ccc(-c2ccc(C(=O)O)s2)cc1C#N [Example 9, sodium 5-[3-cyano-4-(isobutylthio)phenyl]thiophene-2-carboxylate] | 2.9 nM |
| N#Cc1cc(-c2cc(F)c(C(=O)O)s2)ccc1OC/C=C/c1ccccc1 [Example 47] | 3.7 nM |
| CCCOc1ccc(-c2ccc(C(=O)[O-])s2)cc1C#N.[Na+] [Example 1, sodium 5-(3-cyano-4-n-propoxyphenyl)thiophene-2-carboxylate] | 3.2 nM |
| N#Cc1cc(-c2ccc(C(=O)O)s2)ccc1OCc1ccccc1 [Example 24] | 2.5 nM |
| N#Cc1cc(-c2ccc(C(=O)O)s2)ccc1OCCn1cccc1 [Example 22] | 5.1 nM |
| N#CCCCOc1ccc(-c2ccc(C(=O)O)s2)cc1C#N [Example 23] | 13 nM |
| CC(C)COc1c(F)cc(-c2ccc(C(=O)O)s2)cc1C#N [Example 54] | 1.5 nM |
| CC(C)COc1ccc(-c2ccc(-c3nnn[nH]3)s2)cc1[N+](=O)[O-] [Example 5, 5-[5-(4-isobutoxy-3-nitrophenyl)-2-thienyl]-1H-tetrazole] | 9.3 nM |
| CC(=O)c1cc(-c2ccc(C(=O)O)s2)ccc1OC1CCCC1 [Example 33] | 5.9 nM |
| CC1CCN(c2ccc(-c3ccc(C(=O)O)s3)cc2C#N)CC1 [Example 30] | 2 nM |
| CC(C)COc1ccc(-c2ccc(C(=O)O)s2)cc1[N+](=O)[O-] [Example 3, 5-(3-nitro-4-isobutoxyphenyl)thiophene-2-carboxylic acid] | 6.9 nM |
| N#Cc1cc(-c2ccc(C(=O)O)s2)ccc1N1CCCCC1 [Example 27] | 1.8 nM |
| N#Cc1cc(-c2ccc(C(=O)O)s2)ccc1OCc1cccnc1 [Example 19] | 2.8 nM |
| N#Cc1cc(-c2ccc(C(=O)O)s2)ccc1Oc1ccccc1 [Example 34] | 6.3 nM |

What follows are compounds tested on male Wistar rats (assay: Trinitrobenzenesulfonic acid (TNBS)-induced enteritis-inhibitory action). Settings: 3 mg/kg oral once a day, 21st day.
Format: in vivo, rat
Experimental: The effectiveness of the compound of the invention on an enteritis model can be also evaluated by a model using trinitrobenzenesulfonic acid (TNBS) as an inducing agent instead of acetic acid (Cell. Mol. Biol, 38, 189-199, 1992). Thus, referring to the method described in the report, the enteritis-suppressing action of the compound of the invention was evaluated.
Namely, TNBS or physiological saline as a normal group was administered into the rectum of male Wistar rats of 200 to 250 g. Thereafter, a test compound or 0.5% methyl cellulose (control group) was orally administered once a day and dissection was performed on each administered group on 21st day. A part of the large intestine 2 to 7 cm from the anus side was cut out and incised. After feces were removed by means of tweezers, the part was washed and a score of morbid conditions was evaluated and tissue weight was measured. The score of morbid conditions and a tissue weight increase-suppressing ratio were calculated as in the evaluation method of the above acetic acid-induced enteritis-suppressing action.

| Compound | suppression of intestinal tissue weight increase |
| --- | --- |
| CCCOc1ccc(-c2ccc(C(=O)[O-])s2)cc1C#N.[Na+] [Example 1, sodium 5-(3-cyano-4-n-propoxyphenyl)thiophene-2-carboxylate] | ≥ 70% |

These compounds were tested on ICR mice (assay: Serum uric acid-lowering action after oral administration). Settings: after 2 hours from oral administration, 1 mg/kg.
Format: in vivo
Experimental: A test compound was orally administered compulsorily to ICR mice using an oral sonde. After 2 hours, 6 hours, and, depending on the compound, further 24 hours from the administration, blood was collected from an abdominal aorta and then serum was separated in a usual manner. Serum uric acid was measured on an absorptiometer (SPECTRA MAX 190, manufactured by Molecular Device) by an uricase method using a uric acid-measuring kit (Uric Acid C-TestWako: Wako Pure Chemical Industries, Ltd.) and a uric acid-lowering ratio was determined according to the following equation. Uric acid-lowering ratio (%)=(Uric acid level of control animal−Uric acid level of test compound-administered animal)×100/Uric acid level of control animal

| Compound | uric acid-lowering ratio |
| --- | --- |
| CCCOc1ccc(-c2ccc(C(=O)[O-])s2)cc1C#N.[Na+] [Example 1, sodium 5-(3-cyano-4-n-propoxyphenyl)thiophene-2-carboxylate] | 66% |

These compounds were tested on pyrimidine synthetic pathway (assay: Pyrimidine synthetic pathway-inhibitory action (influence on BUN level)). Settings: oral administration of 30 mg/kg.
Format: in vivo
Text: Allopurinol which is an existing hyperuricemia therapeutic drug is known to cause renal dysfunction as an undesirable action. As mentioned previously, since allopurinol has a nucleic acid-like structure, as one cause thereof, it is presumed that it inhibits pyrimidine synthetic pathway. […] Thus, according to the method described in the document, the influence of the compounds of the invention on a BUN level was confirmed.

| Compound | inhibitory action on pyrimidine synthetic pathway (influence on BUN level) |
| --- | --- |
| CCCOc1ccc(-c2ccc(C(=O)[O-])s2)cc1C#N.[Na+] [Example 1, sodium 5-(3-cyano-4-n-propoxyphenyl)thiophene-2-carboxylate] | no inhibitory action |
